From US11470844B2, “Vespidae wasp repellent” (KINP CO., LTD, priority 2015, dated 2022)

How the values were obtained:
[1] = tested on: Vespa simillima xanthoptera worker; assay: Black ball nest disturbance, Experiment 2; type: in vivo; details: for number of worker on black ball hemispherical surface: new black ball; for repellent effect and action to suppress the aggression: in vivo
Description: A similar experiment to the above-described Example 2(2) was conducted against the same Vespa simillima xanthoptera nest of the above-described Experiment 1 on Oct. 31, 2014. The number of worker on the black spherical hemispherical surface counted every 30 seconds on the basis of the video image is shown in Table 5, and the picture of the video footage after 115 seconds is shown as FIG. 2. FIG. 2A is an image of the case where distilled water was used, FIG. 2B is an image of the case where 2-phenylethanol was used, and FIG. 2C is an image of the case where benzyl alcohol was used.

Vespa mandarinia worker [2] = assay: Spray on Vespa mandarinia worker collecting sawthorn oak sap; type: in vivo, Vespa mandarinia japonica Radoszkowski; details: 10 workers; for behavior of workers after spraying: immediately started flapping, same time or a few seconds later; for Number of worker Effective / Number of worker No response: sprayed one time, observed up to 1 minute
Description: The experiment was conducted on a Vespa mandarinia japonica Radoszkowski worker which flew to a sawthorn oak tree bleeding sap and which collected the sap in Kagawa Prefecture Kinbuchi Forest Park in Takamatsu City Kagawa Prefecture from June to October, 2014 and from June to July, 2015.
Specifically, 100 mL of distilled water was enclosed in a plastic sprayer having a volume of 200 mL to be used as a control sprayer, and 100 mL of benzyl alcohol was enclosed in the same material and the same volume sprayer to be used as a test liquid sprayer. First, distilled water was sprayed one time to one Vespa mandarinia worker which was collecting sap at a sap bleeding part of a trunk of a sawthorn oak tree by using a control sprayer. […] Then, benzyl alcohol was sprayed one time by using a test liquid sprayer. Next, the workers were observed up to 1 minute. With respect to 2-phenylethanol, 3-phenylpropanol, 1-phenyl-2-prpanol and benzyl acetate, the spray test to a Vespa mandarinia worker collecting a sawthorn oak sap was conducted in the same condition.

Vespa mandarinia worker [3] = assay: Black ball nest disturbance, Experiment 2 (new black ball, 30 s vibration); type: in vivo; details: for repellent effect: in vivo
Excerpt: In the above-described Experiment 1, it was observed that vibrating the black ball in contact with the nest entrance more strongly induces the attack behavior of the worker rather than vibrating the black ball in the air away from the nest. Accordingly, the attack situation of the worker was investigated by vibrating the black ball in contact with the entrance of the same Vespidae wasp nest used in the above-described Experiment 1 for 30 seconds on Oct. 31, 2014. Specifically, the attack situation of the worker was observed similarly to the above-described Experiment 1 except for using a new black ball without using the black ball on which alarm pheromone was adsorbed even in the case of the test liquid and using 2-phenylethanol or benzyl alcohol as the test liquid by vibrating the black ball in contact with the entrance of the same nest for 30 seconds.
As a result, in the case of the black ball on which distilled water was sprayed, it was difficult to count the total number of the workers which flew to and alighted on the black ball for attack, since the black ball was continued to be attacked by the workers for 150 seconds from the end of the vibration almost without interruption and the number of attacking worker was clearly larger in comparison with the case of the above-described Experiment 1. The inventors therefore counted the number of the worker which could be observed on the hemispherical surface of the black ball from the video image at intervals of 30 seconds from the end of the disturbance. In addition, a picture of the video footage 145 seconds after the end of the nest entrance disturbance is shown as FIG. 1. FIG. 1A is an image of the case where distilled water was used, FIG. 1B is an image of the case where 2-phenylethanol was used, and FIG. 1C is an image of the case where benzyl alcohol was used.

Apis mellifera worker = details: in vivo
Description: The experiment involving a Apis mellifera worker which was sucking nectar from a flower of Abelia planted at a bank of Noda pond located at Fuseishi-cho, Takamatsu City, Kagawa Prefecture was conducted on Jul. 22 to 24, 2015.
With respect to the experimental condition, first, distilled water was sprayed once on the worker which was sucking nectar or moving from a flower to a flower by using a sprayer, and then the inventors observed the behavior for 30 seconds. Next, benzyl alcohol, 2-phenylethanol or benzyl acetate was sprayed once on the same worker by using the sprayer having the same mass and the same volume, and then the inventors observed the behavior up to 30 seconds. The test liquid was judged to be “effective” in the case where the Apis mellifera worker on which the test liquid was sprayed did different action than normal activity to visit a flower during the observation time.

`OCCc1ccccc1` [2-Phenylethanol, 2-phenylethanol] was tested, and the “number of worker on black ball hemispherical surface” value ([1]; 30 s after disturbance) was 1, the “number of worker on black ball hemispherical surface” value ([1]; 60 s after disturbance) was 0 and the “number of worker on black ball hemispherical surface” value ([1]; 90 s after disturbance) was 0. The “number of worker on black ball hemispherical surface” value ([1]; 120 s after disturbance) was 0, the “number of worker on black ball hemispherical surface” value ([1]; 150 s after disturbance) was 0 and the “repellent effect and action to suppress the aggression” value [1] was “strong equivalent to or higher than the repellent effect on Vespa mandarinia”. The “behavior of workers after spraying” value (Vespa mandarinia worker [2]) was “flew away from the sap bleeding part”, the “Number of worker Effective” value (Vespa mandarinia worker [2]) was 10/10 and the “Number of worker No response” value (Vespa mandarinia worker [2]) was 0/10. The “number of worker on hemispherical surface of black ball” value (“number of worker … of black ball” below) (Vespa mandarinia worker [3]; 30 s after disturbance) was 0, the “number of worker … of black ball” value (Vespa mandarinia worker [3]; 60 s after disturbance) was 0 and the “number of worker … of black ball” value (Vespa mandarinia worker [3]; 90 s after disturbance) was 0. The “number of worker … of black ball” value (Vespa mandarinia worker [3]; 120 s after disturbance) was 0, the “number of worker … of black ball” value (Vespa mandarinia worker [3]; 150 s after disturbance) was 0 and the repellent effect (Vespa mandarinia worker [3]) was “very strong”. For the same molecule, the “Number of worker Effective” value (Apis mellifera worker) was 0/10 and the “Number of worker No response” value (Apis mellifera worker) was 10/10.
In the case of `OCc1ccccc1` [Benzyl alcohol, benzyl alcohol], the “number of worker on black ball hemispherical surface” value ([1]; 30 s after disturbance) is reported as 0, the “number of worker on black ball hemispherical surface” value ([1]; 60 s after disturbance) is reported as 0 and the “number of worker on black ball hemispherical surface” value ([1]; 90 s after disturbance) is reported as 0. For the same molecule, the “number of worker on black ball hemispherical surface” value ([1]; 120 s after disturbance) was 0, the “number of worker on black ball hemispherical surface” value ([1]; 150 s after disturbance) was 0 and the “repellent effect and action to suppress the aggression” value [1] was “strong equivalent to or higher than the repellent effect on Vespa mandarinia”. For the same molecule, the “behavior of workers after spraying” value (Vespa mandarinia worker [2]) was “flew away from the sap bleeding part”, the “Number of worker Effective” value (Vespa mandarinia worker [2]) was 10/10 and the “Number of worker No response” value (Vespa mandarinia worker [2]) was 0/10. For the same molecule, the “number of worker … of black ball” value (Vespa mandarinia worker [3]; 30 s after disturbance) was 0, the “number of worker … of black ball” value (Vespa mandarinia worker [3]; 60 s after disturbance) was 0 and the “number of worker … of black ball” value (Vespa mandarinia worker [3]; 90 s after disturbance) was 0. For the same molecule, the “number of worker … of black ball” value (Vespa mandarinia worker [3]; 120 s after disturbance) was 0, the “number of worker … of black ball” value (Vespa mandarinia worker [3]; 150 s after disturbance) was 0 and the repellent effect (Vespa mandarinia worker [3]) was “very strong”. For the same molecule, the “Number of worker Effective” value (Apis mellifera worker) was 0/10, the “Number of worker No response” value (Apis mellifera worker) was 10/10 and the “effect on behavior of / harm to honeybee” value (Apis mellifera worker) was “does not effect on the behavior of an Apis mellifera worker”.
